Tests used:
[1] = molecular target: GLP-1R (Homo sapiens, UniProt P43220); test: GLP-1R activation: cAMP increase in CHO cells stably expressing GLP-1R; type: cell-based; settings: cAMP increase, CHO cells stably expressing GLP-1R, 10 point dose response, 30 minutes incubation; read-out: EC50
[2] = Microsomal stability, human liver microsomes (predicted hepatic clearance); settings: predicted from in vitro microsomal stability data

GLP-1R, sequence (P43220 24-463): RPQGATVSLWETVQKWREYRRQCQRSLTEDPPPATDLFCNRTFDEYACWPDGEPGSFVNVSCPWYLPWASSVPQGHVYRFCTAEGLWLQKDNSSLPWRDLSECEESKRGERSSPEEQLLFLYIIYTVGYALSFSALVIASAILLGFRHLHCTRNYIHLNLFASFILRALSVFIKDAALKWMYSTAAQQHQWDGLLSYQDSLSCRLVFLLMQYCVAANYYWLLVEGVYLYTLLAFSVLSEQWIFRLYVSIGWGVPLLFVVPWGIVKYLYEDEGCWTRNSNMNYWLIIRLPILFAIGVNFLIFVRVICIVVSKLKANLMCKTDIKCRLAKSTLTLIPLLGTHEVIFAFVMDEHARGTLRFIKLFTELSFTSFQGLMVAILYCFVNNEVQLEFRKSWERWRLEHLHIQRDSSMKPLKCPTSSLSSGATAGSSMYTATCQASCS

Compound | EC50 [1] | Predicted Hepatic Clearance (Pred. Cl.) [2]
COc1cc(C#N)ccc1COc1cccc(-c2cc(F)c(Cc3nc4ccc(C(=O)O)cc4n3CC3(CF)CC3)cc2F)n1 [Example 409, 2-(4-(6-((4-cyano-2-methoxybenzyl)oxy)pyridin-2-yl)-2,5-difluorobenzyl)-1-((1-(fluoromethyl)cyclopropyl)methyl)-1H-benzo[d]imidazole-6-carboxylic acid] | 0.37 nM | <1.83 mL/min/kg
COCCn1c(Cc2ccc(-c3cccc(OCc4cccc(OC(F)F)c4OC)n3)cc2F)nc2ccc(C(=O)O)cc21 [Example 140, 2-(4-(6-((3-(difluoromethoxy)-2-methoxybenzyl)oxy)pyridin-2-yl)-2-fluorobenzyl)-1-(2-methoxyethyl)-1H-benzo[d]imidazole-6-carboxylic acid] | 197 nM | 9.33 mL/min/kg
COCCn1c(Cc2ccc(-c3cccc(OCc4cccn(C)c4=O)n3)cc2F)nc2ccc(C(=O)O)cc21 [Example 374, 2-(2-fluoro-4-(6-((1-methyl-2-oxo-1,2-dihydropyridin-3-yl)methoxy)pyridin-2-yl)benzyl)-1-(2-methoxyethyl)-1H-benzo[d]imidazole-6-carboxylic acid] | 1930 nM | 6.5 mL/min/kg
COCCn1c(Cc2ccc(-c3cccc(OCc4cccc5ccoc45)n3)cc2F)nc2ccc(C(=O)O)cc21 [Example 136, 2-(4-(6-(benzofuran-7-ylmethoxy)pyridin-2-yl)-2-fluorobenzyl)-1-(2-methoxyethyl)-1H-benzo[d]imidazole-6-carboxylic acid] | 24.5 nM | 9 mL/min/kg
COC[C@H]1C[C@@H](n2c(Cc3cc(F)c(-c4cccc(OCc5ccc(C#N)cc5F)n4)cc3F)nc3ccc(C(=O)O)cc32)C1 [Example 734] | 168 nM | 8 mL/min/kg
COCCn1c(Cc2ccc(-c3cccc(OCc4ccc(C#N)cc4F)n3)cc2)nc2ccc(C(=O)O)cc21 [Example 1, 2-(4-(6-((4-Cyano-2-fluorobenzyl)oxy)pyridin-2-yl)benzyl)-1-(2-methoxyethyl)-1H-benzo[d]imidazole-6-carboxylic acid] | 25.4 nM | 3.3 mL/min/kg
N#Cc1ccc(COc2cccc(-c3cc(F)c(Cc4nc5c(F)cc(C(=O)O)cc5n4CC45CC(CO4)C5)cc3F)n2)c(F)c1 [Example 649] | 0.2 nM | 5.83 mL/min/kg
COCCn1c(Cc2ccc(-c3cc(F)cc(OCc4ccc(C#N)cc4F)c3)cc2F)nc2ccc(C(=O)O)cc21 [Example 27, 2-((3′-((4-cyano-2-fluorobenzyl)oxy)-3,5′-difluoro-[1,1′-biphenyl]-4-yl)methyl)-1-(2-methoxyethyl)-1H-benzop[d]imidazole-6-carboxylic acid] | 78 nM | 2.5 mL/min/kg
[2H]C([2H])(Oc1cccc(-c2cc(F)c(Cc3nc4ccc(C(=O)O)cc4n3CCOC)cc2F)n1)c1ccc(C#N)cc1F [Example 543, 2-(4-(6-((4-cyano-2-fluorophenyl)methoxy-d2)pyridin-2-yl)-2,5-difluorobenzyl)-1-(2-methoxyethyl)-1H-benzo[d]imidazole-6-carboxylic acid] | 1.51 nM | 4.67 mL/min/kg
N#Cc1cc(F)c(COc2nc(-c3ccc(Cc4nc5ccc(C(=O)O)cc5n4C[C@@H]4CCO4)cc3F)ccc2F)cc1F [Example 676] | 0.52 nM | 2.33 mL/min/kg
N#Cc1ccc(COc2cccc(-c3ccc(Cc4nc5ccc(C(=O)O)cc5n4Cc4cnco4)c(F)c3)n2)c(F)c1 [Example 402, 2-(4-(6-((4-cyano-2-fluorobenzyl)oxy)pyridin-2-yl)-2-fluorobenzyl)-1-(oxazol-5-ylmethyl)-1H-benzo[d]imidazole-6-carboxylic acid] | 2.11 nM | 12 mL/min/kg
COCCn1c(Cc2cc(F)c(-c3cccc(OCc4ccc(CC#N)cc4)n3)cc2F)nc2ccc(C(=O)O)cc21 [Example 817] | 10.3 nM | 9 mL/min/kg

Source: US11702404B2, “GLP-1R modulating compounds” (priority 2019, dated 2023)
